The source of these data is US10392383B2, “3-(1H-benzo[d]imidazol-2-yl)-1H-pyrazolo[4,3-b]pyridines and therapeutic uses thereof” (Samumed, LLC, priority 2015, dated 2019).

Assay [1] concerns Wnt activity (Sp5-Luc reporter, Wnt-responsive promoter) in SW480 colon carcinoma cells. Kind of assay: Wnt activity screening assay: Sp5-Luc reporter gene assay in SW480 cells. The format is cell-based. Conditions: Homo sapiens, overnight incubation, 10-point curve starting from 10 μM. The method, boiled down: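 Wnt-driven firefly luciferase in SW480 colon carcinoma cells reports pathway activity after overnight compound exposure (10 μM top concentration, 3-fold steps). Signal is normalized to DMSO controls.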

Another assay concerns IL-6 (THP-1 cells). Kind of assay: IL-6 inhibition in LPS-stimulated THP-1 monocytes (HTRF). The format is cell-based. Conditions: Homo sapiens, IL-6 HTRF; for EC50: 500 ng/mL LPS, Table 6; for inhibition at 10 µM: LPS, Table 6, read-out: percent inhibition at 10 μM (given in parentheses for EC50 >10 μM). Summed up:
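THP-1 cells in 1% FBS pre-incubated 2 h with compound (10-point 1:3 series from 10 μM, 0.1% DMSO), then stimulated with 500 ng/mL LPS for 22 h at 37 °C. IL-6 measured by HTRF 665/620 ratio, normalized to DMSO; EC50 by four-parameter fit, or % inhibition at 10 μM when EC50 >10 μM.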

Molecules are shown by their SMILES. Some results are limits rather than exact numbers.

`c1cc(-c2ccc3c(c2)OCO3)c2nc(-c3n[nH]c4ccc(C5CCNCC5)nc34)[nH]c2c1` [Compound 1108, 3-(4-(Benzo[d][1,3]dioxol-5-yl)-1H-benzo[d]imidazol-2-yl)-5-(piperidin-4-yl)-1H-pyrazolo[4,3-b]pyridine] showed a 50% effective concentration (EC50) in assay [1] of 3.52 µM. For the same compound, in the assay with IL-6 (THP-1 cells), the EC50 was greater than 10 µM and the inhibition at 10 µM came out at 4.6%.
As to `C1=C(c2ccc3[nH]nc(-c4nc5c(-c6ccc7c(c6)OCO7)cccc5[nH]4)c3n2)CCNC1` [Compound 1109, 3-(4-(Benzo[d][1,3]dioxol-5-yl)-1H-benzo[d]imidazol-2-yl)-5-(1,2,3,6-tetrahydropyridin-4-yl)-1H-pyrazolo[4,3-b]pyridine], the values for the EC50 (in assay [1]; in the assay on IL-6 (THP-1 cells)) were 1.08 µM and 5.87 µM, respectively.
In the same order, the values of `O=C(Nc1cncc(-c2ccc3[nH]nc(-c4nc5c(-c6ccccc6F)cccc5[nH]4)c3n2)c1)C(F)(F)F` [Compound 1126, 2,2,2-Trifluoro-N-(5-(3-(4-(2-fluorophenyl)-1H-benzo[d]imidazol-2-yl)-1H-pyrazolo[4,3-b]pyridin-5-yl)pyridin-3-yl)acetamide] are 0.892 µM and 0.0518 µM.
As for `CN1CCN(c2cccc3[nH]c(-c4n[nH]c5ccc(-c6cncc(NC(=O)C(F)(F)F)c6)nc45)nc23)CC1` [Compound 1127, 2,2,2-Trifluoro-N-(5-(3-(4-(4-methylpiperazin-1-yl)-1H-benzo[d]imidazol-2-yl)-1H-pyrazolo[4,3-b]pyridin-5-yl)pyridin-3-yl)acetamide], the half-maximal effective concentration (EC50) in assay [1] was found to be 3.99 µM; in the assay with IL-6 (THP-1 cells), 7.09 µM.
On to `Cn1cc(-c2ccc3[nH]nc(-c4nc5c(-c6ccc(F)cc6)cccc5[nH]4)c3n2)c(CO)n1` [Compound 1129, (4-(3-(4-(4-Fluorophenyl)-1H-benzo[d]imidazol-2-yl)-1H-pyrazolo[4,3-b]pyridin-5-yl)-1-methyl-1H-pyrazol-3-yl)methanol], for which the EC50 in assay [1] is 2.2 µM; in the assay with IL-6 (THP-1 cells) it was 9.72 µM.
Compound `Cn1cc(-c2ccc3[nH]nc(-c4nc5c(N6CCCCC6)cccc5[nH]4)c3n2)c(CO)n1` [Compound 1134, (1-Methyl-4-(3-(4-(piperidin-1-yl)-1H-benzo[d]imidazol-2-yl)-1H-pyrazolo [4,3-b]pyridin-5-yl)-1H-pyrazol-3-yl)methanol] came in with an EC50 in assay [1] of 3.39 µM. For the same compound, in the assay with IL-6 (THP-1 cells), the EC50 was greater than 10 µM and the inhibition at 10 µM worked out at 28.3%.
In the same order, the values of `Cn1cc(-c2ccc3[nH]nc(-c4nc5c(-c6ccc7c(c6)OCO7)cccc5[nH]4)c3n2)c(CO)n1` [Compound 1152, (4-(3-(4-(Benzo[d][1,3]dioxol-5-yl)-1H-benzo[d]imidazol-2-yl)-1H-pyrazolo[4,3-b]pyridin-5-yl)-1-methyl-1H-pyrazol-3-yl)methanol] are 0.929 µM, greater than 10 µM and 23.3%.
